In patent US20250339399A1, “SUPRAMOLECULAR SELF-ASSEMBLY SYSTEM” (Beijing Creatron Institute of Pharmaceutical Research Co., …, priority 2022, published 2025):

Assays:
[1] = Binary supramolecular self-assembly systems of polymer and target: guest concentration over incubation time (Comparative Example 2); format: physicochemical; conditions: for Concentration of guest molecule in solution / Times that of the initial medium: 6 h
Procedure: Experiments were conducted according to the steps in Comparative Example 1, and quantitative analysis was carried out using the analytical method for each target to investigate the regulation ability […] stacking.

[2] = cited from earlier work
[3] = Guest molecule concentration after incubation in initial medium without polymer (Comparative Example 1); format: physicochemical; conditions: 37° C., 0.1% SDS in pH 6.8 phosphate buffer
Method in brief: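 Dissolved guest content measured by HPLC of centrifuged supernatants (37° C., 13000 rpm, 5 min) sampled at 0.5 h, 3 h and 6 h. Incubation was polymer-free at 37° C.±0.5° C. in buffers of pH 2.0-7.4; nominal loading was set by maximum clinical dose.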

[4] = Binary (carrier), ternary and quaternary supramolecular self-assembly systems of polymer, carrier building block and target: guest concentration over incubation time (Examples 1-56); format: physicochemical
Method in brief: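 Targets were incubated at 37 °C in pH 2.0–7.4 buffers with 0.5% polymer alone or with carrier building blocks, after 0.5 h sonication for ternary systems, and shaken at 200 rpm. Samples at 0.5–6 h were centrifuged and diluted ≥10-fold, and dissolved target was quantified by HPLC; surfactant was added if needed.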

[5] = quaternary: 202 (102H+107) + 0.5% 301, 6 h
[6] = quaternary: 202 (102H+107) + 0.5% 302, 6 h
[7] = quaternary: 204 (102H+103E5) + 0.5% 301, 6 h
[8] = quaternary: 204 (102H+103E5) + 0.5% 302, 6 h
[9] = ternary: 0.25% 102H + 0.5% 301, 6 h
[10] = ternary: 0.25% 102H + 0.5% 302, 6 h

For `CNC(=O)c1cc(Oc2ccc(NC(=O)Nc3ccc(Cl)c(C(F)(F)F)c3)cc2)ccn1` [Sorafenib], the “Concentration of the target in the solution measured after different incubation time” value (shortened to “Concentration … after different incubation time”) ([1]; binary system with 0.5% polymer 101, incubation 0.5 h) was 741.5 µg/mL, the “Concentration … after different incubation time” value ([1]; binary system with 0.5% polymer 101, incubation 3 h) was 751.6 µg/mL and the “Concentration … after different incubation time” value ([1]; binary system with 0.5% polymer 101, incubation 6 h) was 759.3 µg/mL. The “Concentration … after different incubation time” value ([1]; binary system with 0.5% polymer 102, incubation 0.5 h) was 770.6 µg/mL, the “Concentration … after different incubation time” value ([1]; binary system with 0.5% polymer 102, incubation 3 h) was 151.8 µg/mL and the “Concentration … after different incubation time” value ([1]; binary system with 0.5% polymer 102, incubation 6 h) was 102.9 µg/mL. The “Concentration … after different incubation time” value ([1]; binary system with 0.5% polymer 103, incubation 0.5 h) was 602.5 µg/mL, the “Concentration … after different incubation time” value ([1]; binary system with 0.5% polymer 103, incubation 3 h) was 61.5 µg/mL and the “Concentration … after different incubation time” value ([1]; binary system with 0.5% polymer 103, incubation 6 h) was 38.5 µg/mL. The “Concentration … after different incubation time” value ([1]; binary system with 0.5% polymer 104, incubation 0.5 h) was 108.9 µg/mL, the “Concentration … after different incubation time” value ([1]; binary system with 0.5% polymer 104, incubation 3 h) was 4.3 µg/mL and the “Concentration … after different incubation time” value ([1]; binary system with 0.5% polymer 104, incubation 6 h) was 3.7 µg/mL. The “Concentration … after different incubation time” value ([1]; binary system with 0.5% polymer 106, incubation 0.5 h) was 765.3 µg/mL, the “Concentration … after different incubation time” value ([1]; binary system with 0.5% polymer 106, incubation 3 h) was 571.3 µg/mL and the “Concentration … after different incubation time” value ([1]; binary system with 0.5% polymer 106, incubation 6 h) was 310.3 µg/mL. The “Concentration … after different incubation time” value ([1]; binary system with 0.5% polymer 107, incubation 0.5 h) was 784.3 µg/mL, the “Concentration … after different incubation time” value ([1]; binary system with 0.5% polymer 107, incubation 3 h) was 432.2 µg/mL and the “Concentration … after different incubation time” value ([1]; binary system with 0.5% polymer 107, incubation 6 h) was 244.4 µg/mL. The “Concentration of guest molecule in solution” value ([1]; binary: 0.5% 102H) was 102.9 µg/mL, the “Times that of the initial medium” value ([1]; binary: 0.5% 102H) was 18.4 times and the “Average concentration of guest molecule in solution” value ([1]; binary: 0.5% 102H, within 4 to 6 hours) was 110 µg/mL. For the same molecule, the “Concentration of guest molecule in solution” value ([1]; binary: 0.5% 103E5) was 33.4 µg/mL, the “Times that of the initial medium” value ([1]; binary: 0.5% 103E5) was 6.0 times and the “Concentration of guest molecule in solution” value ([1]; binary: 0.5% 107) was 171.6 µg/mL. The “Times that of the initial medium” value ([1]; binary: 0.5% 107) was 30.6 times, the “LogD7.4 or Log P” value [2] was 4.34 and the “Concentration of guest molecule measured after different incubated time” value (“Concentration … after different incubated time” for short) ([3]; 0.5 h) was 98.5 µg/mL. For the same molecule, the “Concentration … after different incubated time” value ([3]; 3 h) was 4.1 µg/mL, the “Concentration … after different incubated time” value ([3]; 6 h) was 4.4 µg/mL and the “Concentration of guest molecule in solution” value [4, 5] was 512.2 µg/mL. The “Times that of the initial medium” value [4, 5] was 91.3 times, the “Concentration of guest molecule in solution” value [4, 6] was 572.8 µg/mL and the “Times that of the initial medium” value [4, 6] was 102.1 times. For the same molecule, the “Concentration of guest molecule in solution” value [4, 7] was 543.3 µg/mL, the “Times that of the initial medium” value [4, 7] was 96.8 times and the “Concentration of guest molecule in solution” value [4, 8] was 431.5 µg/mL. For the same molecule, the “Times that of the initial medium” value [4, 8] was 76.9 times, the “Concentration of guest molecule in solution” value [4, 9] was 609.8 µg/mL and the “Times that of the initial medium” value [4, 9] was 108.7 times. The “Concentration of guest molecule in solution” value [4, 10] was 644.6 µg/mL, the “Times that of the initial medium” value [4, 10] was 115 times and the “Concentration of guest molecule in solution” value ([4]; ternary: 102H + 310, carrier % not stated, 6 h) was 65.6 µg/mL. For the same molecule, the “Concentration of guest molecule in solution” value ([4]; ternary: 102H + 310, 2 h) was 903.1 µg/mL, the “Concentration of guest molecule in solution” value ([4]; ternary: 102H + 311, 4 h) was 804.8 µg/mL and the “Concentration of guest molecule in solution” value ([4]; ternary: 102H + 311, 6 h) was 246.9 µg/mL. The “Concentration of guest molecule in solution” value ([4]; ternary: 102H + 313, carrier % not given, 6 h) was 634.8 µg/mL, the “Concentration of guest molecule in solution” value ([4]; ternary: 102H + 313, 4 h) was 884.2 µg/mL and the “Concentration of guest molecule in solution” value ([4]; ternary: 102H + 318, carrier % not stated, 6 h) was 115.4 µg/mL. For the same molecule, the “Concentration of guest molecule in solution” value ([4]; ternary: 102H + 318, 2 h) was 778.1 µg/mL.
